Results from PMC4264767, “Discovery of Two β-1,2-Mannoside Phosphorylases Showing Different Chain-Length Specificities from Thermoanaerobacter sp. X-514” (PLoS ONE, 2014).

target: T1, Teth514_1788 (Thermoanaerobacter sp. X514, UniProt B0K2C2); assay: colorimetric α-Man1P release, sequential Bi Bi fit; format: biochemical; conditions: kinetic constant K iA of substrate A, no inhibition constant; phosphorolysis; Pi 0.10-2.0 mM; 40 mM MES-NaOH pH 6.0; 30°C
T1 construct: full-length, no signal peptide predicted, C-terminal His6-tag (pET24a) kept, E. coli Rosetta 2 (DE3); theoretical mass 33,997; homodimer
T1 sequence (B0K2C2 1-296): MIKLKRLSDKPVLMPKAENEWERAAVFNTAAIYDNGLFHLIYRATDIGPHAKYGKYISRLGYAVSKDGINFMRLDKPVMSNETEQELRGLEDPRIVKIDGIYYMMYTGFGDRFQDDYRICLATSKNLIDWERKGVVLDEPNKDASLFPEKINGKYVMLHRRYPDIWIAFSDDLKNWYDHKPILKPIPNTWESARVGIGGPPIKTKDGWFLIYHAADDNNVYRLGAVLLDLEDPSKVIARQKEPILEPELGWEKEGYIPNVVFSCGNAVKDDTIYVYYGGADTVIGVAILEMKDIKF

Row | Compound | K iA
1 | OC[C@H]1O[C@@H](O[C@@H]2C(O)O[C@H](CO)[C@@H](O)[C@@H]2O)[C@@H](O)[C@@H](O)[C@@H]1O (stereo partly drawn) [product 1, β-D-mannopyranosyl-(1→2)-D-mannose] | 0.63 ± 0.2 mM
2 | OC[C@H]1O[C@@H](O[C@@H]2[C@H](O[C@@H]3C(O)O[C@H](CO)[C@@H](O)[C@@H]3O)O[C@H](CO)[C@@H](O)[C@@H]2O)[C@@H](O)[C@@H](O)[C@@H]1O (stereo partly drawn) [product 2, β-D-mannopyranosyl-(1→2)-β-D-mannopyranosyl-(1→2)-D-mannose] | 2.1 ± 0.5 mM
3 | OC[C@H]1O[C@@H](O[C@@H]2[C@H](O[C@@H]3[C@H](O[C@@H]4C(O)O[C@H](CO)[C@@H](O)[C@@H]4O)O[C@H](CO)[C@@H](O)[C@@H]3O)O[C@H](CO)[C@@H](O)[C@@H]2O)[C@@H](O)[C@@H](O)[C@@H]1O (stereo partly drawn) [product 3, β-D-mannopyranosyl-(1→2)-β-D-mannopyranosyl-(1→2)-β-D-mannopyranosyl-(1→2)-D-mannose] | 1.9 ± 0.6 mM
